Measurements: ChEMBL document CHEMBL1201862, “PubChem BioAssay data set” (2004)
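All cell lines were grown in 96-well plates and treated with compound for 48 hours. Here, GI50 denotes the concentration required for 50% inhibition of growth.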 The source made the active and inactive calls. No stated cut-off is given here; in the data, active = GI50 up to about 1.1 µM and inactive = higher.

Assays:
Assay in all cases: NCI-60 cell line screen, 48 h
A549 = tested on: A549
BT-549 = tested on: BT-549
CAKI-1 = tested on: CAKI-1
HCC 2998 = tested on: HCC 2998
HCT-116 = tested on: HCT-116
KM12 = tested on: KM12
MCF7 = tested on: MCF7
MOLT-4 = tested on: MOLT-4
NCI-H23 = tested on: NCI-H23
NCI-H460 = tested on: NCI-H460
OVCAR-3 = tested on: OVCAR-3
OVCAR-4 = tested on: OVCAR-4
PC-3 = tested on: PC-3
RPMI-8226 = tested on: RPMI-8226
SF-268 = tested on: SF-268
SK-MEL-28 = tested on: SK-MEL-28
SK-MEL-2 = tested on: SK-MEL-2
SR = tested on: SR
SW-620 = tested on: SW-620
UACC-257 = tested on: UACC-257

Row | SMILES | GI50 (A549) | GI50 (BT-549) | GI50 (CAKI-1) | GI50 (HCC 2998) | GI50 (HCT-116) | GI50 (KM12) | GI50 (MCF7) | GI50 (MOLT-4) | GI50 (NCI-H23) | GI50 (NCI-H460) | GI50 (OVCAR-3) | GI50 (OVCAR-4) | GI50 (PC-3) | GI50 (RPMI-8226) | GI50 (SF-268) | GI50 (SK-MEL-28) | GI50 (SK-MEL-2) | GI50 (SR) | GI50 (SW-620) | GI50 (UACC-257)
1 | CN(C)c1ccc(C2SCC(=O)N2c2nc3cc4sc(N5C(=O)CSC5c5ccc(N(C)C)cc5)nc4cc3s2)cc1 (centres undefined) | 7.71 µM (inactive) | 22.9 µM (inactive) | 8.49 µM (inactive) | > 100 µM (inactive) | 16 µM (inactive) | 39.5 µM (inactive) | 12 µM (inactive) | 3.37 µM (inactive) | 11.4 µM (inactive) | 1.53 µM (inactive) | 48.3 µM (inactive) | 32.9 µM (inactive) | 38.1 µM (inactive) | 19.5 µM (inactive) | 75.7 µM (inactive) | > 72.8 µM (inactive) | > 100 µM (inactive) | 6.62 µM (inactive) | 8.02 µM (inactive) | > 25.5 µM (inactive)
2 | O=C1C(=O)c2c(oc(=O)c3ccccc23)-c2ccccc21 | > 25 µM (inactive) | 11.7 µM (inactive) | > 25 µM (inactive) | 13.9 µM (inactive) | 11 µM (inactive) | > 25 µM (inactive) | 10.9 µM (inactive) | > 25 µM (inactive) | 18 µM (inactive) | > 25 µM (inactive) | 7.05 µM (inactive) | 6.5 µM (inactive) | > 25 µM (inactive) | 19.3 µM (inactive) | > 25 µM (inactive) | > 25 µM (inactive) | > 25 µM (inactive) | > 25 µM (inactive) | 22.2 µM (inactive) | > 25 µM (inactive)
3 | CCC1(O)CN(CCOC)[C@H]2C[C@@H]1C(=O)c1[nH]c3ccccc3c12 (some centres undefined) | > 100 µM (inactive) | > 100 µM (inactive) | > 100 µM (inactive) | > 100 µM (inactive) | > 100 µM (inactive) | > 100 µM (inactive) | > 100 µM (inactive) | > 100 µM (inactive) | > 100 µM (inactive) | > 100 µM (inactive) | > 100 µM (inactive) | > 100 µM (inactive) | > 100 µM (inactive) | > 100 µM (inactive) | > 100 µM (inactive) | > 100 µM (inactive) | > 100 µM (inactive) | > 100 µM (inactive) | > 100 µM (inactive) | > 100 µM (inactive)
4 | Cc1ccc2c(c1C)C(=O)/C(=C/c1ccccc1C(=O)O)C2 | > 100 µM (inactive) | 20.7 µM (inactive) | > 100 µM (inactive) | > 100 µM (inactive) | > 100 µM (inactive) | > 100 µM (inactive) | > 100 µM (inactive) | > 100 µM (inactive) | > 100 µM (inactive) | > 100 µM (inactive) | > 100 µM (inactive) | > 100 µM (inactive) | > 100 µM (inactive) | 45.3 µM (inactive) | > 100 µM (inactive) | > 100 µM (inactive) | > 100 µM (inactive) | > 100 µM (inactive) | > 100 µM (inactive) | > 100 µM (inactive)
5 | CC(C)=CCc1c(O)c(CC=C(C)C)c2oc(-c3ccc(O)cc3O)c(CC=C(C)C)c(=O)c2c1O | 5.4 µM (inactive) | 7.98 µM (inactive) | 12.7 µM (inactive) | 4.06 µM (inactive) | 4.97 µM (inactive) | 5.57 µM (inactive) | 3.98 µM (inactive) | 3.33 µM (inactive) | 5.56 µM (inactive) | 4.48 µM (inactive) | 7.1 µM (inactive) | 5.51 µM (inactive) | 6.46 µM (inactive) | 3.43 µM (inactive) | 9.16 µM (inactive) | 12.2 µM (inactive) | 3.66 µM (inactive) | 2.34 µM (inactive) | 6.1 µM (inactive) | 12.5 µM (inactive)
6 | CCC1(CC)C(=O)N(C(=O)c2ccc(Cl)cc2)N(C(=O)c2ccccc2Cl)C1=O | > 100 µM (inactive) | 67.9 µM (inactive) | > 100 µM (inactive) | > 100 µM (inactive) | 31.6 µM (inactive) | 52.8 µM (inactive) | 43.1 µM (inactive) | 20.6 µM (inactive) | 32.1 µM (inactive) | 19.3 µM (inactive) | 27.1 µM (inactive) | > 100 µM (inactive) | > 100 µM (inactive) | 25.8 µM (inactive) | 35.4 µM (inactive) | 98.4 µM (inactive) | > 100 µM (inactive) | 34.9 µM (inactive) | 29.4 µM (inactive) | > 100 µM (inactive)
7 | CC(=O)Nc1ccc(S(=O)(=O)N=S(C)C)cc1 | > 100 µM (inactive) | > 100 µM (inactive) | > 100 µM (inactive) | > 100 µM (inactive) | > 100 µM (inactive) | > 100 µM (inactive) | > 100 µM (inactive) | > 100 µM (inactive) | > 100 µM (inactive) | > 100 µM (inactive) | > 100 µM (inactive) | > 100 µM (inactive) | > 100 µM (inactive) | > 100 µM (inactive) | > 100 µM (inactive) | > 100 µM (inactive) | > 100 µM (inactive) | > 100 µM (inactive) | > 100 µM (inactive) | > 100 µM (inactive)
8 | NNC(=S)N/N=C(\C(=O)Nc1cccc(O)c1)C1C(=O)NC(=S)NC1=O | > 100 µM (inactive) | > 100 µM (inactive) | > 100 µM (inactive) | > 100 µM (inactive) | > 100 µM (inactive) | > 100 µM (inactive) | > 100 µM (inactive) | > 100 µM (inactive) | – | > 100 µM (inactive) | > 100 µM (inactive) | 36.3 µM (inactive) | > 100 µM (inactive) | > 100 µM (inactive) | > 100 µM (inactive) | > 100 µM (inactive) | > 100 µM (inactive) | > 100 µM (inactive) | > 100 µM (inactive) | > 100 µM (inactive)
9 | COC(=O)[C@]12CC[C@H]3CN(C(=O)OCc4ccccc4)[C@H]([C@H]31)[C@H](c1ccccc1)N2 | 54.7 µM (inactive) | 85.5 µM (inactive) | 70.6 µM (inactive) | > 100 µM (inactive) | 65.3 µM (inactive) | 72.6 µM (inactive) | 67.6 µM (inactive) | 33 µM (inactive) | 77.4 µM (inactive) | > 100 µM (inactive) | 74.1 µM (inactive) | 64.7 µM (inactive) | 43.2 µM (inactive) | 36.1 µM (inactive) | > 100 µM (inactive) | > 100 µM (inactive) | 59.7 µM (inactive) | 42.2 µM (inactive) | > 100 µM (inactive) | 39.5 µM (inactive)
10 | Cc1ccc(N2CN3OC(=O)N(c4ccccc4)[C@@]3(c3ccccc3)C2)cc1 | 36.5 µM (inactive) | 50.4 µM (inactive) | 33.3 µM (inactive) | 24.9 µM (inactive) | 29.2 µM (inactive) | 33.9 µM (inactive) | 33.7 µM (inactive) | 35.1 µM (inactive) | 24.2 µM (inactive) | 21.6 µM (inactive) | 19.4 µM (inactive) | 34.2 µM (inactive) | 34.2 µM (inactive) | 45.6 µM (inactive) | 50.7 µM (inactive) | > 100 µM (inactive) | 19.9 µM (inactive) | 16 µM (inactive) | 80 µM (inactive) | 26.6 µM (inactive)
11 | C1CSCCSCCCSCCSCCCSCCSCCCSCCSC1 | > 100 µM (inactive) | > 100 µM (inactive) | > 100 µM (inactive) | > 100 µM (inactive) | 62.8 µM (inactive) | > 100 µM (inactive) | > 100 µM (inactive) | > 100 µM (inactive) | > 100 µM (inactive) | > 100 µM (inactive) | > 100 µM (inactive) | > 100 µM (inactive) | 69.3 µM (inactive) | 86.1 µM (inactive) | > 100 µM (inactive) | > 100 µM (inactive) | > 100 µM (inactive) | > 100 µM (inactive) | > 100 µM (inactive) | > 100 µM (inactive)
12 | O=C(c1ccccc1)c1c(-c2ccccc2)[nH]n(-c2ccc([N+](=O)[O-])cc2)c(=O)c1=O | 38.5 µM (inactive) | 27.6 µM (inactive) | 87.3 µM (inactive) | 64.7 µM (inactive) | 53.2 µM (inactive) | 94.8 µM (inactive) | 33.7 µM (inactive) | 37.2 µM (inactive) | 0.2 µM (active) | 37.2 µM (inactive) | 56.2 µM (inactive) | 25.8 µM (inactive) | 42.9 µM (inactive) | 43.9 µM (inactive) | 40.2 µM (inactive) | 21 µM (inactive) | 21.1 µM (inactive) | 35.5 µM (inactive) | 42.6 µM (inactive) | 41.5 µM (inactive)
13 | CCCC(=O)Oc1c2ccsc2c(OC(=O)CCC)c2ccsc12 | 3.94 µM (inactive) | 1.35 µM (inactive) | 5.55 µM (inactive) | 4.14 µM (inactive) | 1.35 µM (inactive) | 7.64 µM (inactive) | 2.23 µM (inactive) | 1.96 µM (inactive) | 0.74 µM (active) | 1.05 µM (active) | 1.07 µM (active) | 2.94 µM (inactive) | 0.836 µM (active) | 1.41 µM (inactive) | 3.13 µM (inactive) | 0.951 µM (active) | 1.09 µM (active) | 0.444 µM (active) | 1.63 µM (inactive) | 0.92 µM (active)
14 | CC12Nc3c(Cl)cc(Cl)cc3N1C(=O)c1ccccc12 (centres undefined) | > 100 µM (inactive) | 71.6 µM (inactive) | > 100 µM (inactive) | > 100 µM (inactive) | > 100 µM (inactive) | > 100 µM (inactive) | > 100 µM (inactive) | 58.7 µM (inactive) | > 100 µM (inactive) | 95.5 µM (inactive) | > 100 µM (inactive) | 90.2 µM (inactive) | > 100 µM (inactive) | > 100 µM (inactive) | > 100 µM (inactive) | > 100 µM (inactive) | > 100 µM (inactive) | 63.8 µM (inactive) | > 100 µM (inactive) | > 100 µM (inactive)
